The values below come from publication PMC11201061, “Mechanistic Study of Antimicrobial Effectiveness of Cyclic Amphipathic Peptide [R4W4] against Methicillin-Resistant Staphylococcus aureus Clinical Isolates” (Antibiotics, 2024).

Assay [1] deals with MRSA USA300. Put plainly: Checkered board synergy assay with gentamicin. The assay is classed as cell-based, Staphylococcus aureus. The method, then: (§1) An amount of 100 µL of [R4W4] peptide test solution at a final concentration of 512 µg/mL was added to each well A-G column 1 in plate A using a multi-channel pipette. A 50 µL MH Broth was added to micro-plate well A-G columns 2–9. Using a multi-channel pipette, a two-fold serial dilution was performed by removing 50 µL solution from column 1 and was added to column 2 with thorough mixing. The micro-pipette was discarded after each transfer. The last portion after column 9 was discarded. In another microplate, 100 µL MHB was added to well B-G columns 1–11 using a multi-channel pipette. A 200 µL gentamicin test solution 512 µg/mL was added to row A, columns 1–11. A two-fold serial dilution was performed by removing 100 µL from rows A to B. The last portion was discarded. Using eight multi-channel pipettes, 50 µL of gentamicin test solution was transferred in the ordinate column A-G row 1 to the first microplate. The plate was incubated at 37 °C for 18–24 h. The fractional inhibitory concentration (FIC) of the antibacterial agents and the fractional inhibitory concentration index (FICI) of the two antibacterial agents were determined to evaluate the synergistic interaction. The FICI was interpreted as follows: FICI ≤ 0.5, synergy; 0.5 < FICI ≤ 1, partial synergy; 1 ≤ FICI < 4, additive effect or indifference; 4 ≤ FICI antagonism and calculated from the mean values from multiple experiments.

Another assay deals with E. coli 25922. Nature of the assay: Checkered board synergy assay with gentamicin. The assay is classed as cell-based, Escherichia coli. As to the method: as §1
Assay [2] relates to MRSA USA300. Nature of the assay: microbe, parasite or virus in culture. The method, then: MRSA USA300 bacteria from −80 °C freezer stock were cultured on an LB agar plate overnight. One bacteria colony was added to a 6 mL fresh MHB with constant shaking at 200 rpm at 37 °C. The bacteria were transferred daily by inoculating 10 μL of stationary-phase culture into […] of MHB in a 1 mL cap-clipped Eppendorf tube. Then, 20 μL of bacteria aliquot was added to […] of MHB broth, with or without [R4W4], at a final concentration of the MIC overnight in an […] at 37 °C for five transfers. […] […] Experiments were performed in triplicates. Every time we increased the concentration of [R4W4], a sample of the induction generation was inoculated into 20% (vol/vol) glycerol and stored at −70 °C. The final MIC values of [R4W4], vancomycin, and levofloxacin were determined by modified microbroth dilution assay.

The subject of assay [3] is MRSA USA300. Put plainly: microbe, parasite or virus in culture. The following applies: MRSA USA300, overnight 37 °C, duplicate. The method, then: The interaction of [R4W4], melittin, and vancomycin with LTA in the presence of MRSA was determined using a microbroth dilution assay. Two-fold serial dilution was used to achieve a 100 μL final concentration of the antibacterial agents in a 96 microplate well. A 360 μL S. aureus LTA (Sigma Aldrich stock 5 mg/mL) was added to 17.64 mL MHB containing MRSA (5 x 10^5 CFU/mL) to achieve the final concentration of S. aureus LTA 100 μg/mL. Then, 100 μL aliquots of MHB (MRSA (5 × 10^5 CFU/mL) and 100 μg/mL S. aureus LTA) were added to the 96 microtiter wells containing the antibacterial agents. The microplate was incubated overnight at 37 °C to obtain the MICs. Controls were bacteria grown in the presence of LTA alone and in MHB alone.

≈ marks a conversion by molar mass, not a printed value.

With `CNC(C)C1CCC(N)C(OC2C(N)CC(N)C(OC3OCC(C)(O)C(NC)C3O)C2O)O1` (stereo not shown) [Gentamicin, gentamicin, reference compound], the “MIC(B+A) (gentamicin in combination with [R4W4])” value in the assay with MRSA USA300 [1] (MRSA USA300, checkered board) is 0.05 µg/mL; in the assay with E. coli 25922 (E. coli 25922, checkered board), 0.19 µg/mL. Besides, the “MICB (gentamicin alone)” value in the assay on MRSA USA300 [1] (MRSA USA300, checkered board) was found to be 0.09 µg/mL; with E. coli 25922 (E. coli 25922, checkered board) it was 0.75 µg/mL. In addition, the FICB is recorded as 0.56 in the assay with MRSA USA300 [1] (MRSA USA300, fractional inhibitory concentration of gentamicin) and 0.25 in the assay on E. coli 25922 (E. coli 25922, fractional inhibitory concentration of gentamicin). Also, the “reduction in MIC value in combination” value was ~ 2 fold in the assay with MRSA USA300 [1] (MRSA, [R4W4] + gentamicin combination versus alone) and “approximately 4 fold” with E. coli 25922 (E. coli, [R4W4] + gentamicin combination versus alone).

On to `C[C@H]1COc2c(N3CCN(C)CC3)c(F)cc3c(=O)c(C(=O)O)cn1c23` [levofloxacin, Levofloxacin], for which, in the assay on MRSA USA300 [2] (MRSA USA300 index strain, MIC in duplicate), the “MIC against index isolate (no serial passage)” value turned out to be 1 µg/mL (≈ 2.77 µM). For the same molecule, in the assay with MRSA USA300 [2] (MRSA USA300 passaged versus index strain), the “change in MIC after serial passage” value was determined as 2 folds. Besides, in the assay with MRSA USA300 [2] (Staphylococcus aureus, MRSA|USA300, read-out: MIC against serial passaged [R4W4]-resistant isolate), the MIC was 2 µg/mL (≈ 5.53 µM).

On to `CC[C@H](C)[C@H](NC(=O)CN)C(=O)NCC(=O)N[C@@H](C)C(=O)N[C@H](C(=O)N[C@@H](CC(C)C)C(=O)N[C@@H](CCCCN)C(=O)N[C@H](C(=O)N[C@@H](CC(C)C)C(=O)N[C@H](C(=O)N[C@H](C(=O)NCC(=O)N[C@@H](CC(C)C)C(=O)N1CCC[C@H]1C(=O)N[C@@H](C)C(=O)N[C@@H](CC(C)C)C(=O)N[C@H](C(=O)N[C@@H](CO)C(=O)N[C@@H](Cc1c[nH]c2ccccc12)C(=O)N[C@H](C(=O)N[C@@H](CCCCN)C(=O)N[C@@H](CCCNC(=N)N)C(=O)N[C@@H](CCCCN)C(=O)N[C@@H](CCCNC(=N)N)C(=O)N[C@@H](CCC(N)=O)C(=O)N[C@@H](CCC(N)=O)C(N)=O)[C@@H](C)CC)[C@@H](C)CC)[C@@H](C)O)[C@@H](C)O)C(C)C)C(C)C` [melittin, reference compound], for which the “MIC in the presence of LTA” value with MRSA USA300 [3] (100 μg/mL S. aureus LTA in MHB) worked out at 32 µg/mL. In addition, the “MIC in the absence of LTA” value against MRSA USA300 [3] (MHB) came out at 8 µg/mL.
